{"source": "paper PMC6027433", "about": "“Synthesis, Evaluation of Cytotoxicity and Molecular Docking Studies of the 7-Acetamido Substituted 2-Aryl-5-bromo-3-trifluoroacetylindoles as Potential Inhibitors of Tubulin Polymerization” (Pharmaceuticals, 2018)", "key": {"lung cancer (A549) cells": {"system": "lung cancer (A549) cells", "assay": "MTT dose response cytotoxicity, A549", "format": "cell-based", "conditions": "Homo sapiens, 48 h", "experimental": "(§1) Cells were seeded as described in above. […] The medium was aspirated and replaced with 200 μL fresh medium containing the dilution of the respective test compound. The test sample were added to each well and the plates were incubated for a further 48 h at 37 °C under 5% CO2 atmosphere in a humidified incubator. After this incubation period, the medium was removed and then replaced with 100 μL fresh culture medium containing MTT at a final concentration of 0.5 mg/mL. The 96-well plates were returned to the incubator and incubated for an additional 3 h. The medium was removed and the MTT crystals were solubilized in 100 μL DMSO and the absorbance was measured at 560 nm using a Labsystems Multiwell Scanning spectrophotometer (Thermo Fischer Scientific, Edenvale, South Africa).\n(§2) Quantification of live and dead cells for the screening assay was performed using the ImageXpress Micro XLS Widefield Microscope and acquired images analysed using the MetaXpress software and Multi-Wavelength Cell Scoring Application Module. Acquired data was transferred to an EXCEL spreadsheet and relative cell viability was determined using quadruplicate wells for each concentration. Untreated cells were considered to have 100% cell viability (i.e., the mean OD of the untreated wells = 100% viability). Cell viabilities in other test wells were calculated relative to the untreated control and expressed as a percentage. Dose response analysis was performed using the statistical software GraphPad Prism and IC50 values calculated from the concentration-response data using a mathematical Hill function."}, "[1]": {"system": "cervical cancer (HeLa) cells", "assay": "MTT dose response cytotoxicity, HeLa", "format": "cell-based", "conditions": "Homo sapiens, 48 h", "experimental": "as §1, §2"}, "HeLa cells [2]": {"system": "HeLa cells", "assay": "Caspase 8 and 3 activation (immunochemical), HeLa", "format": "cell-based, human", "conditions": "24 h exposure at IC50 values", "experimental": "(§3) Several distinctive mechanisms of cancer cell death such as apoptosis, necrosis, autophagy and cornification have been identified, and these are characterized by differences in morphology and biochemical changes. A major biochemical feature of apoptosis is the activation of caspases, which plays a central role in the morphological changes associated with apoptosis. Caspase activation was determined using immunochemical methods and the antibodies against activated caspase 8 and caspase 3. […] Activated caspase 8 can be used as a convenient indicator of involvement of the extrinsic death receptor pathway of apoptosis. Executioner caspases including caspase 3 are, in turn, activated by the initiator caspases. This protein is either partially or totally responsible for the cleavage of many key proteins such as PARP, DNA protein kinases and retinoblastoma protein [25]. […] This was true for both activated caspase 8 and 3. A more distinct increase was evident with caspase 3 albeit less pronounced than that of 4c and the increase was expected as caspase 3 is activated by initiator caspase including caspase 8, which is a later event in apoptosis. […] Prolonged treatment of the cells with compounds 5e–h for 48 h or more, for example, would probably result in significant effects. We also evaluated compound 5g for potential to induce other key apoptotic biochemical features such as phosphatidylserine (PS) translocation, cell cycle arrest and mitochondrial membrane depolarization.\n(§4) Compounds 4c and 5g were selected for mechanism studies and these test compounds were reconstituted in dimethyl sulphoxide (DMSO) to give a final concentration of 40 mM. Samples were stored at 4 °C until required. […]\n(§5) Quantification of live and dead cells for the assay was performed using the ImageXpress Micro XLS Widefield Microscope and acquired images analysed using the MetaXpress software and Multi-Wavelength Cell Scoring Application Module and the Cell Cycle Module. Acquired data was transferred to an EXCEL spreadsheet and data was analysed and processed."}, "A549 cells [3]": {"system": "A549 cells", "assay": "Caspase 8 and 3 activation (immunochemical), A549", "format": "cell-based, human", "conditions": "24 h exposure at IC50 values", "experimental": "as §3, §4, §5"}, "HeLa cells [4]": {"system": "HeLa cells", "assay": "Other apoptotic features (PS translocation, cell cycle arrest, mitochondrial membrane depolarization), HeLa", "format": "cell-based, human", "conditions": "after 24 h (data not included)", "experimental": "(§6) Several distinctive mechanisms of cancer cell death such as apoptosis, necrosis, autophagy and cornification have been identified, and these are characterized by differences in morphology and biochemical changes. A major biochemical feature of apoptosis is the activation of caspases, which plays a central role in the morphological changes associated with apoptosis. Caspase activation was determined using immunochemical methods and the antibodies against activated caspase 8 and caspase 3. […] Activated caspase 8 can be used as a convenient indicator of involvement of the extrinsic death receptor pathway of apoptosis. Executioner caspases including caspase 3 are, in turn, activated by the initiator caspases. This protein is either partially or totally responsible for the cleavage of many key proteins such as PARP, DNA protein kinases and retinoblastoma protein [25]. […] This was true for both activated caspase 8 and 3. A more distinct increase was evident with caspase 3 albeit less pronounced than that of 4c and the increase was expected as caspase 3 is activated by initiator caspase including caspase 8, which is a later event in apoptosis. […] We also evaluated compound 5g for potential to induce other key apoptotic biochemical features such as phosphatidylserine (PS) translocation, cell cycle arrest and mitochondrial membrane depolarization."}, "A549 cells [5]": {"system": "A549 cells", "assay": "Other apoptotic features (PS translocation, cell cycle arrest, mitochondrial membrane depolarization), A549", "format": "cell-based, human", "conditions": "after 24 h (data not included)", "experimental": "as §6"}}, "data": [{"smiles": "CC(=O)Nc1cc(Br)cc2c(C(=O)C(F)(F)F)c(-c3cccc(Cl)c3)[nH]c12", "note": "[Compound 5g, N-[5-Bromo-2-(3-chlorophenyl)-3-trifluoroacetyl-1H-indol-7-yl]acetamide]", "values": [{"measurement": "IC50", "setting": "lung cancer (A549) cells", "result": "2.72 ± 0.43", "unit": "µM"}, {"measurement": "IC50", "setting": "[1]", "result": "8.74 ± 0.94", "unit": "µM"}, {"measurement": "Caspase 8 and 3 activation (% change in mean integrated fluorescence intensity of the untreated control)", "setting": "HeLa cells [2]", "result": "decrease"}, {"measurement": "Caspase 8 and 3 activation (% change in mean integrated fluorescence intensity of the untreated control)", "setting": "A549 cells [3]", "result": "expected increase"}, {"measurement": "PS translocation, cell cycle arrest and mitochondrial membrane depolarization", "setting": "HeLa cells [4]", "result": "failed to induce"}, {"measurement": "PS translocation, cell cycle arrest and mitochondrial membrane depolarization", "setting": "A549 cells [5]", "result": "failed to induce"}]}]}
